The text below walks through data of patent US20160184246A1, “TRANSDERMAL DRUG DELIVERY SYSTEMS FOR AGOMELATINE” (Noven Pharmaceuticals, Inc., priority 2014, published 2016).

Data set [1] can be described thus: Pharmacokinetics of oral agomelatine (background). In kind it is in vivo, human. The following applies: current commercial oral dosage, humans. How it is done: Oral dosage forms (tablets) of agomelatine have been approved in Europe under the trade names Valdoxan, Melitor, and Thymanax. Each tablet contains 25 mg agomelatine, prescribed at an initial dose of 1 tablet taken at bedtime, which dose may be increased to 2 tablets (50 mg) as needed. Oral agomelatine is well absorbed (although greater in women than in men), however, oral bioavailability is only 5% with large variations. The limited bioavailability is believed to be due to heavy first-pass liver metabolism, predominantly by cytochrome CYP1A2 of the P450 isoenzyme system, which results in conjugated metabolites of hydroxylated and demethylated agomelatine. […] The agomelatine oral tablet product produces a human plasma concentration-time pharmacokinetic (PK) profile with a Cmax of about 6 ng/ml, declining thereafter thereafter with a t1/2 of less than 2 hours.

The nature of data set [2]: Solubility of agomelatine in water or aqueous isopropanol (IPA). The data set is classed as physicochemical. The following applies: 32° C. How it is done:
The solubility of agomelatine in water or different concentrations of aqueous isopropanol (IPA) was assessed. As shown in the table below, the solubility of agomelatine in aqueous IPA solutions increased with increasing IPA content. Agomelatine was formulated at its saturation concentration in different concentrations of aqueous IPA and drug flux through human cadaver skin was assessed using a modified Franz-cell apparatus, using 0.1 mL solution per cm^2.

The subject of data set [3] is serum hepatic transaminases. As to conditions: in vivo; cited from earlier work.
For data set [4] the following is noted: cited from earlier work.
The conditions of data set [5]: cited from earlier work. The source holds these as a separate data set.

Converted amounts (≈) assume the structure as drawn.

Turning to `COc1ccc2cccc(CCNC(C)=O)c2c1` [Agomelatine, N-[2-(7-methoxynaphthalen-1-yl)ethyl]acetamide], in data set [1], the “systemic delivery of agomelatine after hepatic metabolism” value is listed as 1.25 to 2.5 mg. For the same compound, the solubility (in general, how much of the substance goes into solution per volume) was 0.4 mg/mL (≈ 1.64 mM) in data set [2] (0 (water)); 3 mg/mL (≈ 12.3 mM) in data set [2] (25 v/v % aqueous isopropanol, aqueous with cosolvent or surfactant or cyclodextrin, 25 v/v % aqueous IPA); 51 mg/mL (≈ 210 mM) in data set [2] (50 v/v % aqueous isopropanol, aqueous with cosolvent or surfactant or cyclodextrin, 50 v/v % aqueous IPA); 139 mg/mL (≈ 571 mM) in data set [2] (75 v/v % aqueous isopropanol, aqueous with cosolvent or surfactant or cyclodextrin, 75 v/v % aqueous IPA); > 150 mg/mL in data set [2] (90 v/v % aqueous isopropanol, aqueous with cosolvent or surfactant or cyclodextrin, 90 v/v % aqueous IPA). Also, in data set [3], the “increases in serum hepatic transaminases” value was “as high as three times the upper limit of normal range”. The “individuals with increases in serum hepatic transaminases” value in data set [3] is “up to 1%”. In addition, the solubility in water in data set [4] was 0.2 mg/mL (≈ 0.822 mM). Also, the “bound to plasma protein” value in data set [5] (in vivo) is given as 95%. The “plasma half-life (t1/2)” value in data set [5] (in vivo) is 1 to 2 h. For the same compound, the oral bioavailability in data set [5] (oral) was 5%.
